# PubChem BioAssay AID180 (DTP/NCI, 2004)
# Where “and” joins values, the source holds several entries; their conditions need not be identical. Equal entries are not always repeated.
# Tested on: BDF1 mice, Adenocarcinoma 755 s.c., tumor weight T/C
# Assay: NCI In Vivo Anticancer Drug Screen. Data for tumor model Adenocarcinoma 755 (subcutaneous) in B6D2F1 (BDF1) mice
# Settings: endpoint: mean tumor weight, higher = larger tumour
# How it was run: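 Compound activity was tested in mice carrying transplanted tumors. Survival or tumor size was measured, and each value is the treated-group measurement divided by that of the vehicle-treated control group (T/C).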
# [1] = dose: 30.0 mg/kg/injection, schedule: Q01DX011 (ip), vehicle: saline
# [2] = dose: 60.0 mg/kg/injection, schedule: Q01DX011 (ip), vehicle: saline
# [3] = dose: 120.0 mg/kg/injection, schedule: Q01DX011 (ip), vehicle: saline
# [4] = dose: 240.0 mg/kg/injection, schedule: Q01DX011 (ip), vehicle: saline
# [5] = dose: 12.5 mg/kg/injection, schedule: Q01DX011 (ip), vehicle: methylcellulose (MC)
# [6] = dose: 25.0 mg/kg/injection, schedule: Q01DX011 (ip), vehicle: methylcellulose (MC)
# [7] = dose: 15.0 mg/kg/injection, schedule: Q01DX011 (ip), vehicle: methylcellulose (MC)
# [8] = dose: 125.0 mg/kg/injection, schedule: Q01DX011 (ip), vehicle: methylcellulose (MC)
# [9] = dose: 250.0 mg/kg/injection, schedule: Q01DX011 (ip), vehicle: methylcellulose (MC)
# [10] = dose: 31.0 mg/kg/injection, schedule: Q01DX011 (ip), vehicle: methylcellulose (MC)
# [11] = dose: 200.0 mg/kg/injection, schedule: Q01DX011 (ip), vehicle: other
# [12] = dose: 16.0 mg/kg/injection, schedule: Q01DX011 (ip), vehicle: carboxymethylcellulose (CMC)
# [13] = dose: 31.0 mg/kg/injection, schedule: Q01DX011 (ip), vehicle: carboxymethylcellulose (CMC)
# [14] = dose: 62.0 mg/kg/injection, schedule: Q01DX011 (ip), vehicle: carboxymethylcellulose (CMC)
smiles,measurement,setting,value
COc1ccc2c(c1)CCC(c1ccccc1)=C2c1ccc(OCCN2CCCC2)cc1,T/C,"dose: 3.0 mg/kg/injection, schedule: Q01DX011 (sc), vehicle: steriod suspending solution",86 % of control
same,T/C,"dose: 6.0 mg/kg/injection, schedule: Q01DX011 (sc), vehicle: steriod suspending solution",82 % of control
same,T/C,"dose: 12.0 mg/kg/injection, schedule: Q01DX011 (sc), vehicle: steriod suspending solution",34 % of control
same,T/C,"dose: 25.0 mg/kg/injection, schedule: Q01DX011 (sc), vehicle: steriod suspending solution",26 % of control
C[C@]12C=CC(=O)C=C1CC[C@@H]1[C@@H]2[C@@H](O)C[C@@]2(C)[C@H]1CC[C@]2(O)C(=O)CF,T/C,"dose: 8.0 mg/kg/injection, schedule: Q01DX011 (sc), vehicle: steriod suspending solution",64 % of control
same,T/C,"dose: 16.0 mg/kg/injection, schedule: Q01DX011 (sc), vehicle: steriod suspending solution",22 % of control
same,T/C,"dose: 132.0 mg/kg/injection, schedule: Q01DX011 (sc), vehicle: steriod suspending solution",30 % of control
same,T/C,"dose: 264.0 mg/kg/injection, schedule: Q01DX011 (sc), vehicle: steriod suspending solution",5 % of control
OCC1OC(n2cnc3c(I)ncnc32)C(O)C1O (stereo not given),T/C,[1],73 % of control
same,T/C,[2],73 % of control
same,T/C,[3],49 % of control
same,T/C,[4],29 % of control
O=P1(N(CCF)CCF)NCCCO1 (stereo not given),T/C,"dose: 3.75 mg/kg/injection, schedule: Q01DX011 (ip), vehicle: saline",62 % of control
same,T/C,"dose: 7.5 mg/kg/injection, schedule: Q01DX011 (ip), vehicle: saline",79 % of control
same,T/C,"dose: 15.0 mg/kg/injection, schedule: Q01DX011 (ip), vehicle: saline",26 % of control
COC(=O)C1=CO[C@H](C)[C@@H]2CN3CCc4c([nH]c5ccccc45)[C@@H]3C[C@H]12,T/C,"dose: 9.0 mg/kg/injection, schedule: Q01DX011 (ip), vehicle: carboxymethylcellulose (CMC)",95 % of control
same,T/C,"dose: 17.5 mg/kg/injection, schedule: Q01DX011 (ip), vehicle: carboxymethylcellulose (CMC)",92 % of control
same,T/C,"dose: 35.0 mg/kg/injection, schedule: Q01DX011 (ip), vehicle: carboxymethylcellulose (CMC)",116 % of control
same,T/C,"dose: 70.0 mg/kg/injection, schedule: Q01DX011 (ip), vehicle: carboxymethylcellulose (CMC)",93 % of control
NC(=O)N(CCCl)N=O,T/C,"dose: 0.23 mg/kg/injection, schedule: Q01DX011 (ip), vehicle: methylcellulose (MC)",54 % of control and 59 % of control
same,T/C,"dose: 0.9 mg/kg/injection, schedule: Q01DX011 (ip), vehicle: methylcellulose (MC)",34 % of control and 38 % of control
same,T/C,"dose: 1.8 mg/kg/injection, schedule: Q01DX011 (ip), vehicle: methylcellulose (MC)",27 % of control
CCN(CC)CCNc1ccc(C)c2sc3ccccc3c(=O)c12,T/C,[5],73 % of control
same,T/C,"dose: 12.93 mg/kg/injection, schedule: Q01DX011 (ip), vehicle: carboxymethylcellulose (CMC)",98 % of control
same,T/C,[6],51 % of control
same,T/C,"dose: 25.87 mg/kg/injection, schedule: Q01DX011 (ip), vehicle: carboxymethylcellulose (CMC)",117 % of control
same,T/C,"dose: 25.88 mg/kg/injection, schedule: Q01DX011 (ip), vehicle: carboxymethylcellulose (CMC)",73 % of control
same,T/C,"dose: 32.35 mg/kg/injection, schedule: Q01DX011 (ip), vehicle: carboxymethylcellulose (CMC)",75 % of control
same,T/C,"dose: 43.13 mg/kg/injection, schedule: Q01DX011 (ip), vehicle: carboxymethylcellulose (CMC)",49 % of control
same,T/C,"dose: 50.0 mg/kg/injection, schedule: Q01DX011 (ip), vehicle: methylcellulose (MC)",35 % of control
same,T/C,"dose: 51.75 mg/kg/injection, schedule: Q01DX011 (ip), vehicle: carboxymethylcellulose (CMC)",44 % of control and 46 % of control and 59 % of control
same,T/C,"dose: 59.1 mg/kg/injection, schedule: Q01DX011 (ip), vehicle: carboxymethylcellulose (CMC)",15 % of control
same,T/C,"dose: 64.7 mg/kg/injection, schedule: Q01DX011 (ip), vehicle: carboxymethylcellulose (CMC)",23 % of control
same,T/C,"dose: 82.8 mg/kg/injection, schedule: Q01DX011 (ip), vehicle: carboxymethylcellulose (CMC)",7 % of control
same,T/C,"dose: 100.0 mg/kg/injection, schedule: Q01DX011 (ip), vehicle: methylcellulose (MC)",1 % of control
same,T/C,"dose: 103.5 mg/kg/injection, schedule: Q01DX011 (ip), vehicle: carboxymethylcellulose (CMC)",5 % of control
same,T/C,"dose: 1617.5 micrograms/kg/injection, schedule: Q01DX011 (ip), vehicle: carboxymethylcellulose (CMC)",70 % of control
same,T/C,"dose: 3235.0 micrograms/kg/injection, schedule: Q01DX011 (ip), vehicle: carboxymethylcellulose (CMC)",38 % of control
same,T/C,"dose: 6470.0 micrograms/kg/injection, schedule: Q01DX011 (ip), vehicle: carboxymethylcellulose (CMC)",15 % of control
same,T/C,"dose: 8087.0 micrograms/kg/injection, schedule: Q01DX011 (ip), vehicle: carboxymethylcellulose (CMC)",72 % of control
O=C(CCl)Nc1ncnc2nc[nH]c12,T/C,"dose: 20.0 mg/kg/injection, schedule: Q01DX011 (ip), vehicle: methylcellulose (MC)",84 % of control
Nc1nc(SCc2ccc(F)cc2)c2ncn(C3OC(CO)C(O)C3O)c2n1 (stereo not given),T/C,"dose: 3.1 mg/kg/injection, schedule: Q01DX011 (ip), vehicle: methylcellulose (MC)",86 % of control
same,T/C,"dose: 6.2 mg/kg/injection, schedule: Q01DX011 (ip), vehicle: methylcellulose (MC)",59 % of control
same,T/C,[5],19 % of control
same,T/C,[6],11 % of control
CSc1nc(N)nc2c1ncn2CCCl,T/C,"dose: 10.0 mg/kg/injection, schedule: Q01DX011 (ip), vehicle: saline",65 % of control
same,T/C,"dose: 20.0 mg/kg/injection, schedule: Q01DX011 (ip), vehicle: saline",70 % of control
same,T/C,"dose: 40.0 mg/kg/injection, schedule: Q01DX011 (ip), vehicle: saline",73 % of control
same,T/C,"dose: 80.0 mg/kg/injection, schedule: Q01DX011 (ip), vehicle: saline",74 % of control
CCc1c(Cl)nc(N)nc1Nc1ccccc1C,T/C,[7],115 % of control
same,T/C,"dose: 62.0 mg/kg/injection, schedule: Q01DX011 (ip), vehicle: methylcellulose (MC)",88 % of control
same,T/C,[8],114 % of control
same,T/C,[9],94 % of control
Cn1cnc2nc[nH]c2c1=N,T/C,[1],115 % of control
same,T/C,[2],93 % of control
same,T/C,[3],74 % of control
same,T/C,[4],109 % of control
CC(=O)OCC1OC(n2cnc3c(N)ncnc32)C(OC(C)=O)C1OC(C)=O (stereo not given),T/C,"dose: 30.0 mg/kg/injection, schedule: Q01DX011 (ip), vehicle: carboxymethylcellulose (CMC)",150 % of control
same,T/C,"dose: 120.0 mg/kg/injection, schedule: Q01DX011 (ip), vehicle: carboxymethylcellulose (CMC)",113 % of control
same,T/C,"dose: 240.0 mg/kg/injection, schedule: Q01DX011 (ip), vehicle: carboxymethylcellulose (CMC)",103 % of control
Cc1cnc(SCc2ccc(Cl)cc2Cl)nc1SCc1ccc(Cl)cc1Cl,T/C,[10],114 % of control
same,T/C,[8],100 % of control
same,T/C,[9],117 % of control
C=C(Cl)CN(CC)CCO,T/C,"dose: 50.0 mg/kg/injection, schedule: Q01DX011 (ip), vehicle: other",77 % of control
same,T/C,"dose: 100.0 mg/kg/injection, schedule: Q01DX011 (ip), vehicle: other",69 % of control
same,T/C,[11],76 % of control
Cc1cc(Nc2cccc(Cl)c2)nc(N)n1,T/C,[7],114 % of control
same,T/C,[10],56 % of control
NC(=O)c1n[nH]nc1N=Nc1c(O)ccc2ccccc12,T/C,[12],85 % of control
same,T/C,[13],120 % of control
same,T/C,[14],204 % of control
CCCCN(C)N=Nc1ccc(C(=O)OCC)cc1,T/C,"dose: 125.0 mg/kg/injection, schedule: Q01DX011 (ip), vehicle: other",37 % of control
same,T/C,[11],31 % of control
O=c1[nH]cnc2c1ncn2CCCl,T/C,[6],195 % of control
same,T/C,"dose: 75.0 mg/kg/injection, schedule: Q01DX011 (ip), vehicle: methylcellulose (MC)",150 % of control
same,T/C,"dose: 225.0 mg/kg/injection, schedule: Q01DX011 (ip), vehicle: methylcellulose (MC)",120 % of control
CCOC(=O)c1ccc(N=NN(C)C)cc1,T/C,"dose: 8.0 mg/kg/injection, schedule: Q01DX011 (ip), vehicle: carboxymethylcellulose (CMC)",92 % of control
same,T/C,[12],94 % of control
same,T/C,[13],113 % of control
same,T/C,[14],95 % of control
